{"source": "paper PMC5173319", "about": "“Crenactin forms actin-like double helical filaments regulated by arcadin-2” (eLife, 2016)", "key": {"crenactin [1]": {"target": "T1, crenactin (Pyrobaculum calidifontis, UniProt A3MWN5)", "T1 construct": "gene cren-1; full length 1-432, N-terminal His6-SUMO tag cleaved by SENP1; E. coli C41(DE3), codon-optimised gene; double helical filament (homopolymer); model residues 5-430", "T1 sequence (A3MWN5 whole entry, the tested form may be a part)": "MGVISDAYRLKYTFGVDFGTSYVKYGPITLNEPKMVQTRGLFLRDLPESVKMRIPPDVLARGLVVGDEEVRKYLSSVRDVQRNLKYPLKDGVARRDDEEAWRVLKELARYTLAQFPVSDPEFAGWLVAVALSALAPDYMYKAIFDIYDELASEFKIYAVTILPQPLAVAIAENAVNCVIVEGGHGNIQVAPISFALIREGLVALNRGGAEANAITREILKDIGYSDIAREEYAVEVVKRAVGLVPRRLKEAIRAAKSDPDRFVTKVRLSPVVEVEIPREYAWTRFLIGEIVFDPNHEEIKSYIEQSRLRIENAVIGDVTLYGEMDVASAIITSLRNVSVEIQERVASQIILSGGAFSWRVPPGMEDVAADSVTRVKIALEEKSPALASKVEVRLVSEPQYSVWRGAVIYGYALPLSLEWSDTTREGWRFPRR", "assay": "cryoEM helical reconstruction, […] A", "type": "binding", "details": "filament polymerised with 2 mM ATP and 4 mM MgCl2, 50 mM NH4HCO3, 20 mM KCl, on ice; ATPase active site"}, "crenactin [2]": {"target": "T1, crenactin", "assay": "[…] degree light scattering, polymerisation", "type": "biochemical", "details": "3 uM crenactin, 2 mM ATP, 4 mM MgCl2, 50 mM NH4HCO3, 50 mM NaCl, 8% PEG 8000, 25 C"}}, "data": [{"smiles": "Nc1ncnc2c1ncn2[C@@H]1O[C@H](COP(=O)(O)OP(=O)(O)O)[C@@H](O)[C@H]1O", "note": "[ADP]", "values": [{"measurement": "cryoEM helical reconstruction, 3.8 A", "setting": "crenactin [1]", "value": "The cryoEM density for the ADP nucleotide is superimposed."}]}, {"smiles": "Nc1ncnc2c1ncn2[C@@H]1O[C@H](COP(=O)(O)OP(=O)(O)OP(=O)(O)O)[C@@H](O)[C@H]1O", "note": "[ATP]", "values": [{"measurement": "90 degree light scattering, polymerisation", "setting": "crenactin [2]", "value": "Addition of ATP to crenactin resulted in an increase of scattering"}]}]}
